Test results reported in publication PMC10825133, “Repurposing proteasome inhibitors for improved treatment of triple-negative breast cancer” (Cell Death Discovery, 2024).
Like-named read-outs stand apart in the source and are kept apart here.

Experiments:
Experiment in all cases: Resazurin-based cell viability assay, monotherapy drug screen
Design in all cases: species or system human; AUC: scale not given here
BT-549 cells = settings: BT-549; for AUC: area under the dose response curve, 24 h; for GRmax: drug efficacy at highest tested dose (<0 cytotoxic, 0 cytostatic, >0 partial growth inhibition)
Description: (§1) Eighteen pharmaceutical compounds were purchased from Selleckchem. […] The stock solutions were stored at -80°C. […] New drug plates were prepared for each drug screen.
(§2) To determine the optimal seeding density and ensure that the cells were in the exponential phase during the duration of the experiment (approx. 52h), each cell line (BT-549, CAL-148, HCC1806, HCC38, HCC70, MCF-10A, MCF-7, MDA-MB-436, MDA-MB-453, and MDA-MB-468) was seeded at different concentrations (1000 to 16000 cells) per 96-well, as previously described. Cell viability was measured daily (day 0 [plating day] to day 4) using 0.2 mg/ml resazurin solution prepared from resazurin sodium salt (Fisher Scientific) dissolved in sterile 1xPBS (ThermoFisher Scientific). Before use, the resazurin solution was brought to RT before 10 µl (10% of cell medium volume) was added to each 96-well and incubated for 4h at 37°C. The absorbance was measured with a 560 nm excitation filter and a 615 nm emission filter in a Wallac 1420 VICTOR2™ microplate reader (Perkin Elmer). The slope of the curve was used to determine the optimal seeding density, i.e., the highest seeding density with linear growth between days 1 and 3.

MDA-MB-436 cells = settings: MDA-MB-436; for IC50: growth rate inhibition concentration at GR(c) = 0.5, 24 h, read-out: GR50 (the source's name); for AUC: area under the dose response curve, 24 h; for GRmax: drug efficacy at highest tested dose (<0 cytotoxic, 0 cytostatic, >0 partial growth inhibition)
Description: as §1, §2

MCF-10A cells = settings: for AUC: area under the dose response curve, 24 h
Description: as §1, §2

HCC1806 cells = settings: HCC1806; for AUC: area under the dose response curve, 24 h; for GRmax: drug efficacy at highest tested dose (<0 cytotoxic, 0 cytostatic, >0 partial growth inhibition); for IC50: Homo sapiens
Description: as §1, §2

MCF-7 cells = settings: MCF-7; for IC50: growth rate inhibition concentration at GR(c) = 0.5, 24 h, read-out: GR50 (the source's name); for AUC: area under the dose response curve, 24 h; for GRmax: drug efficacy at highest tested dose (<0 cytotoxic, 0 cytostatic, >0 partial growth inhibition)
Description: as §1, §2

MDA-MB-453 cells = settings: MDA-MB-453; for IC50: Homo sapiens, growth rate inhibition concentration at GR(c) = 0.5, 24 h, read-out: GR50 (the source's name); for AUC: area under the dose response curve, 24 h
Description: as §1, §2

MDA-MB-468 cells = settings: MDA-MB-468; for AUC: area under the dose response curve, 24 h
Description: as §1, §2

HCC38 cells = settings: HCC38; for AUC: area under the dose response curve, 24 h; for GRmax: drug efficacy at highest tested dose (<0 cytotoxic, 0 cytostatic, >0 partial growth inhibition)
Description: as §1, §2

HCC70 cells = settings: HCC70; for AUC: area under the dose response curve, 24 h; for GRmax: drug efficacy at highest tested dose (<0 cytotoxic, 0 cytostatic, >0 partial growth inhibition)
Description: as §1, §2

[1] = Homo sapiens, growth rate inhibition concentration at GR(c) = 0.5, 24 h, read-out: GR50 (the source's name)
[2] = Homo sapiens, 24 h drug treatment, read-out: IC50
[3] = 24 h drug treatment, read-out: IC50
[4] = growth rate inhibition concentration at GR(c) = 0.5, 24 h, read-out: GR50 (the source's name)
[5] = drug efficacy at highest tested dose (<0 cytotoxic, 0 cytostatic, >0 partial growth inhibition)

| Compound | AUC (BT-549 cells) | GRmax (BT-549 cells) | IC50 (BT-549 cells; [1]) [nM] | IC50 (MDA-MB-436 cells; Homo sapiens) [nM] | AUC (MDA-MB-436 cells) | GRmax (MDA-MB-436 cells) | IC50 (MCF-10A cells; [2]) [nM] | IC50 (MCF-10A cells; [1]) [nM] | AUC (MCF-10A cells) | AUC (HCC1806 cells) | GRmax (HCC1806 cells) | IC50 (HCC1806 cells; [3]) [nM] | AUC (MCF-7 cells) | GRmax (MCF-7 cells) | AUC (MDA-MB-453 cells) | AUC (MDA-MB-468 cells) | AUC (HCC38 cells) | GRmax (HCC38 cells) | AUC (HCC70 cells) | GRmax (HCC70 cells) | also measured |
| --- | --- | --- | --- | --- | --- | --- | --- | --- | --- | --- | --- | --- | --- | --- | --- | --- | --- | --- | --- | --- | --- |
| CC(C)C[C@H](NC(=O)[C@H](Cc1ccccc1)NC(=O)c1cnccn1)B(O)O [Bortezomib] | 0.66 | 0.39 | 100 | 21 | 0.75 | −0.76 | 46 | 12 | 0.59 | 0.70 | 0.33 | 790 | 0.78 | −0.43 | 0.75 | 0.57 | 0.40 | −0.99 | 0.68 | −0.55 | IC50 (HCC1806 cells; [4]): 380 nM; IC50 (MCF-7 cells; Homo sapiens, MCF7): 31 nM; IC50 (MDA-MB-453 cells): 63 nM; IC50 (MDA-MB-468 cells; [2]): 54 nM; IC50 (MDA-MB-468 cells; [1]): 17 nM; IC50 (HCC38 cells; [2]): 24 nM; IC50 (HCC38 cells; [1]): 10 nM; IC50 (HCC70 cells; [2]): 810 nM; IC50 (HCC70 cells; [1]): 100 nM |
| N.N.O=C([O-])C1(C(=O)[O-])CCC1.[Pt+2] [Carboplatin] | 0.85 | 0.39 |  |  | 0.91 | 0.41 |  |  | 0.90 | 0.90 | 0.53 |  | 0.91 | −0.15 | 0.98 | 0.81 | 0.88 | 0.03 | 0.83 | −0.42 | IC50 (BT-549 cells; [4]): 670 nM; IC50 (MDA-MB-436 cells): 870 nM; IC50 (MCF-10A cells; [3]): 730 nM; GRmax (MCF-10A cells; [5]): 0.19; IC50 (MCF-10A cells; [4]): 760 nM; IC50 (MCF-7 cells): 360 nM; GRmax (MDA-MB-453 cells; [5]): 0.79; IC50 (MDA-MB-468 cells; [3]): 470 nM; GRmax (MDA-MB-468 cells; [5]): 0.02; IC50 (MDA-MB-468 cells; [4]): 240 nM; IC50 (HCC38 cells; [3]): 890 nM; IC50 (HCC38 cells; [4]): 430 nM; IC50 (HCC70 cells; [3]): 450 nM; IC50 (HCC70 cells; [4]): 270 nM |
| CC(C)C[C@H](NC(=O)[C@H](CCc1ccccc1)NC(=O)CN1CCOCC1)C(=O)N[C@@H](Cc1ccccc1)C(=O)N[C@@H](CC(C)C)C(=O)[C@@]1(C)CO1 [Carfilzomib] | 0.67 | 0.37 | 1000 | 1.8 | 0.73 | −0.89 | 540 | 110 | 0.66 | 0.73 | 0.31 | 1700 | 0.81 | −0.45 | 0.77 | 0.65 | 0.71 | −0.99 | 0.76 | −0.57 | IC50 (BT-549 cells; [2]): 4400 nM; IC50 (HCC1806 cells; [4]): 950 nM; IC50 (MCF-7 cells; Homo sapiens, MCF7): 190 nM; IC50 (MDA-MB-453 cells): 220 nM; IC50 (MDA-MB-468 cells; [2]): 460 nM; IC50 (MDA-MB-468 cells; [1]): 110 nM; IC50 (HCC38 cells; [2]): 570 nM; IC50 (HCC38 cells; [1]): 380 nM; IC50 (HCC70 cells; [2]): 2100 nM; IC50 (HCC70 cells; [1]): 480 nM |
